System: human IgG+IgM serum antibodies
Assay: OppA2 peptide ELISA
Assay type: binding
Settings: for binding of antibodies present in RPR+ serum: 26 RPR+ sera
Procedure: 96-well plates (Nunc Maxisorp) were coated with 10 μg/mL peptide, diluted in 0.1M carbonate-bicarbonate buffer, pH 9.4 (50 μL per well), for 1 hour at room temperature. Blocking buffer 1% bovine serum albumin (BSA) in PBS was added to the wells (250 μL/well) and incubated overnight at 4° C. Wells were washed three times with PBS containing 0.05% Tween 20 (PBS-T) and incubated for 2 hours at room temperature with human samples diluted 1:100 in PBS-1% BSA. Each plate included samples from patients and healthy donors, and all samples were assayed in triplicate. After washing, wells were incubated for 1 hour at RT with a 1:15,000 dilution of HRP-conjugated secondary antibody against human IgG+IgM. Reactions were developed for 30 minutes with 3,3′,5,5′-tetramethylbenzidine (TMB) in the dark at room temperature and the reaction was stopped by the addition of 2N H2SO4. Optical densities were determined at 450 nm and 570 nm wavelengths using a SpectraMax Plus plate reader (Molecular Devices). The cutoff for seropositivity was defined as the mean optical density (OD) of the healthy control samples plus two standard deviations (SD).
OppA2 peptides react specifically with antibodies from Lyme disease patients. The nine peptides were further screened by ELISA using serum or plasma obtained from 104 patients with physician-diagnosed Lyme disease. All patients presented with one or more EM. Control sera was obtained from 45 healthy donors residing in a region of the United States non-endemic for LD, New Mexico. All peptides were incubated with serum in triplicate, and results were validated in two independent experiments. For each peptide, the threshold value for immunoreactivity was defined as the mean optical density (OD) value plus two standard deviations (SD) of results obtained using healthy donor sera. […] OppA2 (191-225) and OppA2 (381-400) were detected by only 2.2% and 6.7%, respectively, of the healthy donor samples.

[1] = Control sera, Healthy blood donors
[2] = Lyme Disease sera, Blood culture negative (localized)
[3] = Lyme Disease sera, Blood culture positive (disseminated)
[4] = Lyme Disease sera, EM positive (1st visit)
[5] = Lyme Disease sera, Elisa Positive

Sequence	reactivity of Lyme disease patient sera compared with sera from healthy donors (in words)	binding of antibodies present in RPR+ serum (in words)	Antibody positivity, % positive [1]	Antibody positivity, N° positive/Total [1]	Antibody positivity, % positive (Control sera, RA)	Antibody positivity, N° positive/Total (Control sera, RA)	Antibody positivity, % positive (Control sera, Syphilis (RPR+))	Antibody positivity, N° positive/Total (Control sera, Syphilis (RPR+))	Antibody positivity, % positive [2]	Antibody positivity, N° positive/Total [2]	Antibody positivity, % positive [3]	Antibody positivity, N° positive/Total [3]	Antibody positivity, % positive [4]	Antibody positivity, N° positive/Total [4]	Antibody positivity, % positive (Lyme Disease sera, EM positive (1st visit), listed as OppA2 (286-310))	Antibody positivity, % positive [5]	Antibody positivity, N° positive/Total [5]	Antibody positivity, % positive (Lyme Disease sera, Wisconsin)	Antibody positivity, N° positive/Total (Lyme Disease sera, Wisconsin)	Antibody positivity, % positive (Lyme Disease sera, EM positive (1st visit), listed as OppA2 (276-300))
APIYIYGNSYLFRND (listed as Borrelia burgdorferi) [OppA2 (495-505)]	comparable to that of sera from healthy donors																			
IYFYSFNTHIKPLDNVKIRKALTLA (listed as Borrelia sp.) [OppA (286-310)]		did not bind	4.4%	2/45	0%	0/30	0%	0/26	0%	0/13	0%	0/10	(43.6) %	44/104	43.6%	(22.9) %	8/35	(78.3) %	36/46	
SDYYSSAVNAIYFYAFNTHIKPLDN (listed as Borrelia sp.) [OppA (276-300)]		did not bind	4.4%	2/45	0%	0/30	0%	0/26	0%	0/13	0%	0/10	(36.6) %	34/104		(22.9) %	8/35	(56.5) %	26/46	36.6%
